Laboratory results published in patent US20250313546A1, “NUCLEIC ACID BINDERS” (UNIVERSITY OF STRATHCLYDE, priority 2022, published 2025).
Values after ≈ are worked out from the molar mass of the structure shown.

What was measured:
[1] = test system: Enterococcus faecalis (ATCC 51299); test: Antibacterial MIC, broth microdilution (CLSI); assay type: cell-based; conditions: Enterococcus faecalis, ATCC51299; read-out: MIC80 E. faecalis
[2] = test system: C. albicans (ATCC 90028); conditions: Candida albicans, ATCC90028, read-out: MIC99 C. albicans
Description: The Minimum Inhibitory Concentration (MIC, at 99% inhibition) of the compounds was determined using the broth microdilution method as recommended by EUCAST (EUCAST Definitive Document E.DEF 9.3.2, Method for the determination of broth dilution minimum inhibitory concentrations of antifungal agents for conidia forming moulds and EUCAST Definitive Document E.DEF 7.3.2 Method for the determination of broth dilution minimum inhibitory concentrations of antifungal agents for yeasts).

[3] = test system: C. neoformans (F10025); conditions: Cryptococcus neoformans, read-out: MIC99 C. neoformans
[4] = test system: Fusarium solani; test: Expanded set of filamentous fungi, MIC broth microdilution (CLSI); assay type: cell-based; conditions: MIC at 50% inhibition; for MIC50: Fusarium solani, isolate F4; for MIC50 Fusarium solani: isolate DI19-284
[5] = test system: Fusarium oxysporum; test: as above; assay type: cell-based; conditions: MIC at 50% inhibition; for MIC50: Fusarium oxysporum, isolate F2; for MIC50 Fusarium oxysporum: isolate F3
[6] = test system: Aspergillus fumigatus; test: as above; assay type: cell-based
[7] = test system: C. auris; test: Expanded set of yeasts, MIC broth microdilution (CLSI); assay type: cell-based; conditions: MIC at 50% inhibition; for MIC50: Candidozyma auris, isolate DI17-47
[8] = test system: C. glabrata; test: as above; assay type: cell-based; conditions: Nakaseomyces glabratus, MIC at 50% inhibition
[9] = test system: SARS-CoV-2 (hCoV-19/Australia/VIC01/2020); test: SARS-CoV-2 microplaque inhibition assay in Vero-E6 cells; assay type: cell-based
[10] = In vivo pharmacokinetics mouse model (distribution and tolerability); design: species or system male CD-1 mice
Description: The procedure used for in vivo pharmacokinetics experiments is described below.
1 mL of 2 mg/mL stock solution was prepared by adding 500 μL of DMSO to 2 mg of compound and vortexed well until the compound had fully dissolved. 500 μL of Saline for Injection (SFI, warmed to 37° C.) was added dropwise, under vortexing.
Working Solutions Immediately prior to dosing, the 2 mg/mL stock solution was diluted 1:5 to produce 0.4 mg/mL dosing solution. 2 mL of 0.4 mg/mL solution was prepared by adding 400 μL of […] stock solution to 1600 μL diluent (10% DMSO, 90% SFI).
The dosing solution was administered to 7 male CD-1 mice, at 5 mL/kg via intravenous (IV) injection (e.g. 30 g mouse with 150 μL). 3 mice were grouped for the blood sampling study and 4 mice were grouped for the tissue sampling study.
At each time point (0.5, 2, 4, 8 hours), 20 μL blood samples were collected from mice by tail prick into 20 μL EDTA blood collection capillary tubes on wet ice. 20 μL blood samples were added directly to the appropriate well of a 96 deep well plate and mixed with 20 μL of distilled water and the samples stored at −80° C. prior to bioanalysis.
At each time point (0.25 and 1 hour), the lung, both kidneys and the liver (left lateral lobe) were removed from culled mice (two per time point) and individually placed in pre-weighed bead beater tubes, which were then weighed to determine tissue weight. 4× weight/volume sterile water was added to the tissue. Tissues were homogenized in a Precellys bead beater then snap frozen at […] until bioanalysis.
Initial stock of Ia10 was made to 1 mg/mL in DMSO. Calibration and quality controls were made by spiking 1 mg/mL DMSO stock into desired matrix and serial dilution in matrix to desired concentration. Calibration range=1 ng/mL-5000 ng/mL. All samples were crashed out in 5× volume of Acetonitrile. Samples were centrifuged and supernatant diluted 1:3 in water to be analysed on LCMS.
Compound Ia10 has been evaluated in an in vivo pharmacokinetics mouse model in order to investigate compound distribution and tolerability.

[11] = isolate AF293, MIC at 50% inhibition
[12] = isolate DI15-106, MIC at 50% inhibition
[13] = isolate DI15-116, MIC at 50% inhibition
[14] = isolate DI19-187, MIC at 50% inhibition
[15] = isolate DI19-230, MIC at 50% inhibition
[16] = isolate DI19-231, MIC at 50% inhibition
[17] = isolate DI19-232, MIC at 50% inhibition
[18] = isolate DI19-233, MIC at 50% inhibition
[19] = isolate DI19-234, MIC at 50% inhibition
[20] = isolate DI19-236, MIC at 50% inhibition
[21] = isolate DI19-237, MIC at 50% inhibition
[22] = isolate DI20-95, MIC at 50% inhibition
[23] = isolate DI20-103, MIC at 50% inhibition

Row | SMILES | MIC80 [1] [µM] | MIC99 [2] [µg/mL] | MIC99 [3] [µg/mL] | MIC50 [4] [µg/mL] | MIC50 Fusarium solani [4] | MIC50 [5] [µg/mL] | MIC50 Fusarium oxysporum [5] | MIC50 [6, 11] [µg/mL] | MIC50 [6, 12] [µg/mL] | MIC50 [6, 13] [µg/mL] | MIC50 [6, 14] [µg/mL] | MIC50 [6, 15] [µg/mL] | MIC50 [6, 16] [µg/mL] | MIC50 [6, 17] [µg/mL] | MIC50 [6, 18] [µg/mL] | MIC50 [6, 19] [µg/mL] | MIC50 [6, 20] [µg/mL] | MIC50 [6, 21] [µg/mL] | MIC50 [6, 22] [µg/mL] | MIC50 [6, 23] [µg/mL] | further results
1 | C/N=C(\CCNC(=O)c1cc(NC(=O)c2cc(NC(=O)c3ccc(/C=C/c4ccc(N(C)C)cc4)nc3)cn2C)cn1C)NC [Ia8, 6-((E)-4-(dimethylamino)styryl)-N-(1-methyl-5-((1-methyl-5-(((E)-3-(methylamino)-3-(methylimino)propyl)carbamoyl)-1H-pyrrol-3-yl)carbamoyl)-1H-pyrrol-3-yl)nicotinamide] | 25 to 100 (≈ 15.2 to 61 µg/mL) | 25 to 50 (≈ 41 to 82 µM) | 5 to 25 (≈ 8.2 to 41 µM) | ≤ 1 | *** (*** means MIC50 <= 1 μg/mL) | ≤ 1 | *** (*** means MIC50 <= 1 μg/mL) | 1 to 8 (≈ 1.64 to 13.1 µM) | 1 to 8 (≈ 1.64 to 13.1 µM) | 1 to 8 (≈ 1.64 to 13.1 µM) | 1 to 8 (≈ 1.64 to 13.1 µM) | 1 to 8 (≈ 1.64 to 13.1 µM) | 1 to 8 (≈ 1.64 to 13.1 µM) | 1 to 8 (≈ 1.64 to 13.1 µM) | 1 to 8 (≈ 1.64 to 13.1 µM) | 1 to 8 (≈ 1.64 to 13.1 µM) | 1 to 8 (≈ 1.64 to 13.1 µM) | 1 to 8 (≈ 1.64 to 13.1 µM) | 1 to 8 (≈ 1.64 to 13.1 µM) | 1 to 8 (≈ 1.64 to 13.1 µM) | MIC50 [7]: 1 to 8 µg/mL (≈ 1.64 to 13.1 µM); MIC50 C. auris ([7]; isolate DI17-46): ** (** means 1 μg/mL < MIC50 <= 8 μg/mL); MIC50 C. auris ([7]; isolate DI17-48): ** (** means 1 μg/mL < MIC50 <= 8 μg/mL); MIC50 ([8]; isolate 05-62): 1 to 8 µg/mL (≈ 1.64 to 13.1 µM); MIC50 ([8]; isolate 05-761): 1 to 8 µg/mL (≈ 1.64 to 13.1 µM); MIC50 ([8]; isolate CG3): 1 to 8 µg/mL (≈ 1.64 to 13.1 µM)
2 | [H]/N=C(\CCNC(=O)c1cc(NC(=O)c2cc(NC(=O)c3ccc(C=Cc4ccc(N(C)C)cc4)nc3)cn2C)cn1C)NC [Ia9, (E)-6-(4-(dimethylamino)styryl)-N-(5-((5-((3-imino-3-(methylamino)propyl)carbamoyl)-1-methyl-1H-pyrrol-3-yl)carbamoyl)-1-methyl-1H-pyrrol-3-yl)nicotinamide] | 25 to 100 (≈ 14.9 to 59.6 µg/mL) | 5 to 25 (≈ 8.39 to 42 µM) | < 5 | ≤ 1 | *** (*** means MIC50 <= 1 μg/mL) | ≤ 1 | *** (*** means MIC50 <= 1 μg/mL) | 1 to 8 (≈ 1.68 to 13.4 µM) | 1 to 8 (≈ 1.68 to 13.4 µM) | 1 to 8 (≈ 1.68 to 13.4 µM) | 1 to 8 (≈ 1.68 to 13.4 µM) | 1 to 8 (≈ 1.68 to 13.4 µM) | 1 to 8 (≈ 1.68 to 13.4 µM) | 1 to 8 (≈ 1.68 to 13.4 µM) | 1 to 8 (≈ 1.68 to 13.4 µM) | 1 to 8 (≈ 1.68 to 13.4 µM) | 1 to 8 (≈ 1.68 to 13.4 µM) | 1 to 8 (≈ 1.68 to 13.4 µM) | 1 to 8 (≈ 1.68 to 13.4 µM) | 1 to 8 (≈ 1.68 to 13.4 µM) | SARS-CoV-2 Selectivity Indices, Group ([9]; SI, IC50 (μM)/IC50 (μM), HEK293 cytotoxicity, Alkyl Amidines and NH Pyrroles): B (Group B: 4.1 < SI <= 10); IC50 ([9]; Severe acute respiratory syndrome coronavirus 2, Vero C1008, plaque inhibition, Vero-E6 cells, read-out: IC50 SARS-CoV-2): 2 to 8 µM; MIC50 [7]: 1 to 8 µg/mL (≈ 1.68 to 13.4 µM); MIC50 C. auris ([7]; isolate DI17-46): ** (** means 1 μg/mL < MIC50 <= 8 μg/mL); MIC50 C. auris ([7]; isolate DI17-48): ** (** means 1 μg/mL < MIC50 <= 8 μg/mL); MIC50 ([8]; isolate 05-62): 1 to 8 µg/mL (≈ 1.68 to 13.4 µM); MIC50 ([8]; isolate 05-761): ≤ 1 µg/mL; MIC50 ([8]; isolate CG3): 1 to 8 µg/mL (≈ 1.68 to 13.4 µM)
3 | C/N=C(/CCNC(=O)c1cc(NC(=O)c2cc(NC(=O)c3ccc(/C=C/c4cnc5ccccc5c4)cc3)cn2C)cn1C)NC [Ia10, 1-methyl-4-(1-methyl-4-(4-((E)-2-(quinolin-3-yl)vinyl)benzamido)-1H-pyrrole-2-carboxamido)-N—((Z)-3-(methylamino)-3-(methylimino)propyl)-1H-pyrrole-2-carboxamide] | < 5 | 5 to 25 (≈ 8.11 to 40.5 µM) | < 5 | ≤ 1 | *** (*** means MIC50 <= 1 μg/mL) | ≤ 1 | *** (*** means MIC50 <= 1 μg/mL) | ≤ 1 | ≤ 1 | ≤ 1 | ≤ 1 | ≤ 1 | 1 to 8 (≈ 1.62 to 13 µM) | ≤ 1 | ≤ 1 | ≤ 1 | ≤ 1 | ≤ 1 | ≤ 1 | ≤ 1 | Blood conc @ 1 Hr ([10]; 2 mg/kg IV dose in mice, blood, 1 Hr): 204 nM; Lung conc @ 1 Hr ([10]; 2 mg/kg IV dose in mice, lung, 1 Hr): 28.968 µM; Accumulation in lung tissue ([10]; 2 mg/kg IV in mice): remarkable accumulation in lung tissue; Tolerability ([10]; 2 mg/kg IV in mice (higher doses were not investigated)): well tolerated; Kp at 1 h ([10]; male, CD-1, mouse, lung vs whole blood, 2 mg/kg IV dose in mice, lung vs blood at 1 Hr, read-out: Lung accumulation factor): ~142; MIC50 [7]: 1 to 8 µg/mL (≈ 1.62 to 13 µM); MIC50 C. auris ([7]; isolate DI17-46): ** (** means 1 μg/mL < MIC50 <= 8 μg/mL); MIC50 C. auris ([7]; isolate DI17-48): ** (** means 1 μg/mL < MIC50 <= 8 μg/mL); MIC50 ([8]; isolate 05-62): ≤ 1 µg/mL; MIC50 ([8]; isolate 05-761): ≤ 1 µg/mL; MIC50 ([8]; isolate CG3): ≤ 1 µg/mL
